Data as given in patent EP3807270B1, “NOVEL HETEROARYL HETEROCYCLYL COMPOUNDS FOR THE TREATMENT OF AUTOIMMUNE DISEASE” (F. Hoffmann-La Roche AG, priority 2018, dated 2019).

Each molecule was assayed against T1, human TLR8 (Homo sapiens, UniProt Q9NR97) (assay: HEK293-Blue-hTLR-8 cells assay (SEAP reporter, R848 stimulation)). Conditions: HEK293-Blue-hTLR8 cells, R848, 20 hrs; read-out: HEK/hTLR8 IC50.
T1 construct: host or cells: HEK293 (HEK-Blue)
T1 sequence (Q9NR97 27-1041): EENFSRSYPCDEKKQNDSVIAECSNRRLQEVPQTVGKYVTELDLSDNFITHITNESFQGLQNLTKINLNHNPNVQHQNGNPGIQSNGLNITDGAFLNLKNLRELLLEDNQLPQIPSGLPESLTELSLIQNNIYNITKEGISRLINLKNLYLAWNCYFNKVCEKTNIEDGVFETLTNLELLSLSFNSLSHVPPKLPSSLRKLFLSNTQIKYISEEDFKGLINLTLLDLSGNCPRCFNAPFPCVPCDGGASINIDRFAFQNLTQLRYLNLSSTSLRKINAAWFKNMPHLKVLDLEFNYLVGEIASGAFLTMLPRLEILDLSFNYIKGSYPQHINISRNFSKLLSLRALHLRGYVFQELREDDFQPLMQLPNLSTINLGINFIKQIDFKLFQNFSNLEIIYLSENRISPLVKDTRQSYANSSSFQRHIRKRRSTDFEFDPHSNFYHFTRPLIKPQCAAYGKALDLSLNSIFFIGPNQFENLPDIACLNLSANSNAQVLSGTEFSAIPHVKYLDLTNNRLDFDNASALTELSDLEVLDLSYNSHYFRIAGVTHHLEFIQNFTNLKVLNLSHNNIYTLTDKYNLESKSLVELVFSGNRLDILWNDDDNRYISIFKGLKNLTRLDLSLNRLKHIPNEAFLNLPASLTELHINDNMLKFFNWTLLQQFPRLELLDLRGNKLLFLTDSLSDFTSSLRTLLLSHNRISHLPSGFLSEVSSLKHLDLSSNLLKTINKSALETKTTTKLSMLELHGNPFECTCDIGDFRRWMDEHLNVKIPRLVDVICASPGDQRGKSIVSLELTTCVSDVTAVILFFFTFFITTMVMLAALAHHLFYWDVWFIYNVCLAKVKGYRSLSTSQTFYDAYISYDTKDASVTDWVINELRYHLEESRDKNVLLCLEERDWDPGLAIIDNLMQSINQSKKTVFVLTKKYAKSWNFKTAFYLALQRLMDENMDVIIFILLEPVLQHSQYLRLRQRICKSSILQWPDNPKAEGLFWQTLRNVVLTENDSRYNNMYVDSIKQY
Type: cell-based
Text: A stable HEK293-Blue-hTLR-8 cell line was purchased from InvivoGen (Cat.#: hkb-htlr8, San Diego, California, USA). These cells were originally designed for studying the stimulation of human TLR8 by monitoring the activation of NF-κB. A SEAP (secreted embryonic alkaline phosphatase) reporter gene was placed under the control of the IFN-β minimal promoter fused to five NF-κB and AP-1-binding sites. The SEAP was induced by activating NF-κB and AP-1 via stimulating HEK-Blue hTLR8 cells with TLR8 ligands. Therefore, the reporter expression was declined by TLR8 antagonist under the stimulation of a ligand, such as R848, for incubation of 20 hrs. The cell culture supernatant SEAP reporter activity was determined using QUANTI-Blue™ kit (Cat.#: rep-qb1, Invivogen, San Diego, Ca, USA) at a wavelength of 640 nm, a detection medium that turns purple or blue in the presence of alkaline phosphatase.
HEK293-Blue-hTLR8 cells were incubated at a density of 250,000-450,000 cells/mL in a volume of 170 µL in a 96-well plate in Dulbecco's Modified Eagle's medium (DMEM) containing 4.5 g/L glucose, 50 U/mL penicillin, […], […], 2 mM L-glutamine, 10% (v/v) heat-inactivated fetal bovine serum with addition of 20 µL test compound in a serial dilution in the presence of final DMSO at 1% and 10 µL of 60uM R848 in above DMEM, perform incubation under 37 °C in a CO2 incubator for 20 hrs. Then 20 µL of the supernatant from each well was incubated with 180 µL Quanti-blue substrate solution at 37°C for 2 hrs and the absorbance was read at 620-655 nm using a spectrophotometer. The signaling pathway that TLR8 activation leads to downstream NF-κB activation has been widely accepted, and therefore similar reporter assay was modified for evaluating TLR8 antagonist.

**Q.** Which IC50 does the source give for `C[C@@H]1CN(c2ccc(C#N)c3ncccc23)C[C@H](CN2CCCN(c3nc4c(s3)CNCC4)CC2)O1` [Example 33, 5-[(2R,6S)-2-methyl-6-[[4-(4,5,6,7-tetrahydrothiazolo[5,4-c]pyridin-2-yl)-1,4-diazepan-1-yl]methyl]morpholin-4-yl]quinoline-8-carbonitrile] here?
**A.** 11 nM

**Q.** For `C[C@@H]1CN(c2ccc(C#N)c3ncccc23)C[C@H](CN2CCN(c3ccc4c(n3)CCN(C)C4)CC2)O1` [Example 34, 5-[(2R,6S)-2-methyl-6-[[4-(6-methyl-7,8-dihydro-5H-1,6-naphthyridin-2-yl)piperazin-1-yl]methyl]morpholin-4-yl]quinoline-8-carbonitrile], which IC50 is on record?
**A.** 6 nM

**Q.** Which IC50 does the source give for `C[C@@H]1CN(c2ccc(C#N)c3ncccc23)C[C@H](CN2CC3(CCN3c3ccc4c(n3)CCNC4)C2)O1` [Example 36, 5-[(2R,6S)-2-methyl-6-[[1-(5,6,7,8-tetrahydro-1,6-naphthyridin-2-yl)-1,6-diazaspiro[3.3]heptan-6-yl]methyl]morpholin-4-yl]quinoline-8-carbonitrile] here?
**A.** 43 nM

**Q.** `C[C@@H]1CN(c2ccc(C#N)c3ncccc23)C[C@H](CN2CCC(Nc3ccc4c(c3)CNC4)C2)O1` (stereo partly drawn) [Example 38, 5-[(2S,6R)-2-[[3-(isoindolin-5-ylamino)pyrrolidin-1-yl]methyl]-6-methyl-morpholin-4-yl]quinoline-8-carbonitrile] was tested. Which IC50 did it give?
**A.** 50 nM

**Q.** How did the IC50 turn out when `C[C@@H]1CN(c2ccc(C#N)c3ncccc23)C[C@H](CN2CCCN(c3ncc4c(n3)CCNC4)CC2)O1` [Example 39, 5-[(2R,6S)-2-methyl-6-[[4-(5,6,7,8-tetrahydropyrido[4,3-d]pyrimidin-2-yl)-1,4-diazepan-1-yl]methyl]morpholin-4-yl]quinoline-8-carbonitrile] was run?
**A.** 12 nM

**Q.** Which IC50 does the source give for `C[C@@H]1CN(c2ccc(C#N)c3ncccc23)C[C@H](CN2CCN(c3cnc4c(n3)CNCC4)CC2)O1` [Example 40, 5-[(2R,6S)-2-methyl-6-[[4-(5,6,7,8-tetrahydropyrido[3,4-b]pyrazin-3-yl)piperazin-1-yl]methyl]morpholin-4-yl]quinoline-8-carbonitrile] here?
**A.** 4 nM

**Q.** `CC1NCc2ncc(N3CCN(C[C@H]4CN(c5ccc(C#N)c6ncccc56)C[C@@H](C)O4)CC3)cc21` (stereo partly drawn) [Example 41, 5-[(2R,6S)-2-methyl-6-[[4-(5-methyl-6,7-dihydro-5H-pyrrolo[3,4-b]pyridin-3-yl)piperazin-1-yl]methyl]morpholin-4-yl]quinoline-8-carbonitrile] was tested. Which IC50 did it give?
**A.** 17 nM

**Q.** Which IC50 does the source give for `C[C@@H]1CN(c2ccc(C#N)c3ncccc23)C[C@H](CNC2CN(c3cnc4c(c3)CNC4)C2)O1` [Example 43, 5-[(2S,6R)-2-[[[1-(6,7-dihydro-5H-pyrrolo[3,4-b]pyridin-3-yl)azetidin-3-yl]amino]methyl]-6-methyl-morpholin-4-yl]quinoline-8-carbonitrile] here?
**A.** 54 nM

**Q.** For `C[C@@H]1CN(c2ccc(C#N)c3ncccc23)C[C@H](CN2CC3(C2)CN(c2ccc4c(c2)CCNC4)CCO3)O1` [Example 44, 5-[(2R,6S)-2-methyl-6-[[8-(1,2,3,4-tetrahydroisoquinolin-6-yl)-5-oxa-2,8-diazaspiro[3.5]nonan-2-yl]methyl]morpholin-4-yl]quinoline-8-carbonitrile], which IC50 is on record?
**A.** 4 nM

**Q.** How did the IC50 turn out when `C[C@@H]1CN(c2ccc(C#N)c3ncccc23)C[C@H](CN2CC3(C2)CN(c2ccc4c(n2)CNCC4)CCO3)O1` [Example 45, 5-[(2R,6S)-2-methyl-6-[[8-(5,6,7,8-tetrahydro-1,7-naphthyridin-2-yl)-5-oxa-2,8-diazaspiro[3.5]nonan-2-yl]methyl]morpholin-4-yl]quinoline-8-carbonitrile] was run?
**A.** 10 nM

**Q.** How did the IC50 turn out when `C[C@@H]1CN(c2ccc(C#N)c3ncccc23)C[C@H](CN2CC3(C2)CN(c2cnc4c(c2)CCNC4)CCO3)O1` [Example 46, 5-[(2R,6S)-2-methyl-6-[[8-(5,6,7,8-tetrahydro-1,7-naphthyridin-3-yl)-5-oxa-2,8-diazaspiro[3.5]nonan-2-yl]methyl]morpholin-4-yl]quinoline-8-carbonitrile] was run?
**A.** 9 nM

**Q.** How did the IC50 turn out when `C[C@@H]1CN(c2ccc(C#N)c3ncccc23)C[C@H](CN2CC3(C2)CN(c2cnc4c(c2)CNCC4)CCO3)O1` [Example 47, 5-[(2R,6S)-2-methyl-6-[[8-(5,6,7,8-tetrahydro-1,6-naphthyridin-3-yl)-5-oxa-2,8-diazaspiro[3.5]nonan-2-yl]methyl]morpholin-4-yl]quinoline-8-carbonitrile] was run?
**A.** 20 nM

**Q.** For `C[C@@H]1CN(c2ccc(C#N)c3ncccc23)C[C@H](CN2CC3(C2)CN(c2cc4c(cn2)CCNC4)CCO3)O1` [Example 48, 5-[(2R,6S)-2-methyl-6-[[8-(5,6,7,8-tetrahydro-2,6-naphthyridin-3-yl)-5-oxa-2,8-diazaspiro[3.5]nonan-2-yl]methyl]morpholin-4-yl]quinoline-8-carbonitrile], which IC50 is on record?
**A.** 8 nM

**Q.** How did the IC50 turn out when `C[C@@H]1CN(c2ccc(C#N)c3ncccc23)C[C@H](CN2CC3(C2)CN(c2ccc4c(n2)CCNC4)CCO3)O1` [Example 49, 5-[(2R,6S)-2-methyl-6-[[8-(5,6,7,8-tetrahydro-1,6-naphthyridin-2-yl)-5-oxa-2,8-diazaspiro[3.5]nonan-2-yl]methyl]morpholin-4-yl]quinoline-8-carbonitrile] was run?
**A.** < 3 nM

**Q.** `C[C@@H]1CN(c2ccc(C#N)c3ncccc23)C[C@H](CN2CC3(C2)CN(c2cnc4c(n2)CCNC4)CCO3)O1` [Example 50, 5-[(2R,6S)-2-methyl-6-[[8-(5,6,7,8-tetrahydropyrido[3,4-b]pyrazin-2-yl)-5-oxa-2,8-diazaspiro [3.5]nonan-2-yl]methyl]morpholin-4-yl] quinoline-8-carbonitrile] was tested. Which IC50 did it give?
**A.** < 3 nM

**Q.** For `C[C@@H]1CN(c2ccc(C#N)c3ncccc23)C[C@H](CN2CC3(C2)CN(c2ncc4c(n2)CCNC4)CCO3)O1` [Example 51, 5-[(2R,6S)-2-methyl-6-[[8-(5,6,7,8-tetrahydropyrido[4,3-d]pyrimidin-2-yl)-5-oxa-2,8-diazaspiro[3.5]nonan-2-yl]methyl]morpholin-4-yl]quinoline-8-carbonitrile], which IC50 is on record?
**A.** 5 nM

**Q.** For `C[C@@H]1CN(c2ccc(C#N)c3ncccc23)C[C@H](CN2C[C@@H]3[C@@H](C2)OCCN3c2cnc3c(c2)CCNC3)O1` [Example 52, 5-[(2S,6R)-2-[[(4aR,7aR)-4-(5,6,7,8-tetrahydro-1,7-naphthyridin-3-yl)-2,3,4a,5,7,7a-hexahydropyrrolo[3,4-b][1,4]oxazin-6-yl]methyl]-6-methylmorpholin-4-yl]quinoline-8-carbonitrile], which IC50 is on record?
**A.** 26 nM

**Q.** How did the IC50 turn out when `C[C@@H]1CN(c2ccc(C#N)c3ncccc23)C[C@H](CN2CCN(c3cnc4c(c3)CNCC4)C(C)(C)C2)O1` [Example 56, 5-[(2S,6R)-2-[[3,3-dimethyl-4-(5,6,7,8-tetrahydro-1,6-naphthyridin-3-yl)piperazin-1-yl]methyl]-6-methyl-morpholin-4-yl]quinoline-8-carbonitrile] was run?
**A.** 12 nM

**Q.** How did the IC50 turn out when `C[C@@H]1CN(c2ccc(C#N)c3ncccc23)C[C@H](CN2CCC(Nc3ncc4c(n3)CCNC4)C2)O1` (stereo partly drawn) [Example 57, 5-[(2R,6S)-2-methyl-6-[[3-(5,6,7,8-tetrahydropyrido [4,3-d]pyrimidin-2-ylamino)pyrrolidin-1-yl]methyl]morpholin-4-yl] quinoline-8-carbonitrile] was run?
**A.** 37 nM
